What was measured:
Type in all cases: physicochemical
Solubility in solvents = test: Solubility in solvents
Experimental: (§1) Cefdinir, calcium salt pentahydrate is stable at temperatures between about 25° C. and about 55° C.

Stability to temperature = details: temperatures between about 25° C. and about 55° C.
Experimental: as §1

[1] = Moisture Sorption/Desorption
Experimental: as §1

solubility in acetone (Solubility in solvents; acetone): less than 1 mg/mL
solubility in acetonitrile (Solubility in solvents; acetonitrile): less than 1 mg/mL
solubility in dichloromethane (Solubility in solvents; dichloromethane): less than 1 mg/mL
solubility in dimethylsulfoxide (Solubility in solvents; dimethylsulfoxide): greater than 96 mg/mL
solubility in ethanol (Solubility in solvents; ethanol): less than 1 mg/mL
solubility in methanol (Solubility in solvents; methanol): less than 1 mg/mL
solubility in water (Solubility in solvents; water): about 3 mg/mL
stability at temperature (Stability to temperature): stable
Weight ([1]; Time 0.1 min, 24.9 ° C., Rel. Humid. 51.63 (start)): 6.2888 mg
Weight ([1]; Time 32.6 min, 25.0 ° C., Rel. Humid. 4.83): 6.2448 mg
Weight ([1]; Time 48.6 min, 25.0 ° C., Rel. Humid. 14.82): 6.2605 mg
Weight ([1]; Time 61.7 min, 25.0 ° C., Rel. Humid. 24.85): 6.2704 mg
Weight ([1]; Time 74.6 min, 25.0 ° C., Rel. Humid. 34.82): 6.2782 mg
Weight ([1]; Time 87.6 min, 24.9 ° C., Rel. Humid. 44.75): 6.2849 mg
Weight ([1]; Time 100.6 min, 25.0 ° C., Rel. Humid. 54.93): 6.2910 mg
Weight ([1]; Time 113.6 min, 25.0 ° C., Rel. Humid. 64.86): 6.2957 mg
Weight ([1]; Time 125.2 min, 25.0 ° C., Rel. Humid. 74.81): 6.3005 mg
Weight ([1]; Time 138.9 min, 25.0 ° C., Rel. Humid. 84.80): 6.3064 mg
Weight ([1]; Time 220.7 min, 25.1 ° C., Rel. Humid. 94.58): 6.3638 mg
Weight ([1]; Time 241.5 min, 25.1 ° C., Rel. Humid. 85.41 (desorption)): 6.3265 mg
Weight ([1]; Time 256.2 min, 25.1 ° C., Rel. Humid. 75.18 (desorption)): 6.3087 mg
Weight ([1]; Time 271.2 min, 25.1 ° C., Rel. Humid. 65.07 (desorption)): 6.3015 mg
Weight ([1]; Time 284.1 min, 25.1 ° C., Rel. Humid. 55.11 (desorption)): 6.2965 mg
Weight ([1]; Time 300.4 min, 25.1 ° C., Rel. Humid. 45.16 (desorption)): 6.2899 mg
Weight ([1]; Time 313.1 min, 25.1 ° C., Rel. Humid. 35.08 (desorption)): 6.2827 mg
Weight ([1]; Time 326.1 min, 25.0 ° C., Rel. Humid. 25.12 (desorption)): 6.2745 mg
Weight ([1]; Time 338.7 min, 25.0 ° C., Rel. Humid. 15.13 (desorption)): 6.2650 mg
Weight ([1]; Time 360.9 min, 25.0 ° C., Rel. Humid. 5.03 (desorption)): 6.2484 mg
Compound: C=CC1=C(C(=O)[O-])N2C(=O)[C@@H](NC(=O)/C(=N\O)c3csc(N)n3)[C@H]2SC1.C=CC1=C(C(=O)[O-])N2C(=O)[C@@H](NC(=O)/C(=N\O)c3csc(N)n3)[C@H]2SC1.O.O.O.O.O.[Ca+2] (single isomer, unassigned) [Cefdinir, calcium salt pentahydrate, calcium (6R-(6α,7β(Z)))-7-(((2-amino-1,3-thiazol-4-yl)(hydroxyimino)acetyl)amino)-3-ethenyl-8-oxo-5-thia-1-azabicyclo[4.2.0]oct-2-ene-2-carboxylate (cefdinir, calcium salt, syn-isomer) pentahydrate]
